Results published in patent publication US10881110B2, “Herbicidal compositions comprising isoxazolo[5,4-b]pyridines” (BASF SE, priority 2014, dated 2021).

Assays:
Test in all cases: greenhouse post-emergence herbicidal test
ECHCG = format: in vivo, Echinochloa crus-galli; design: key to herbicidal activity against ECHCG found / herbicidal activity against ECHCH found: scale 0 to 100; settings: post emergence
Description: (§1) The culture containers used were plastic pots containing medium loamy sand with approximately 4.6% of humus and 69.9% sand as substrate. The seeds of the test plants were sown separately for each species.
(§2) For the post-emergence treatment, the test plants were grown to a plant height of from 1 to 15 cm, depending on the plant habit, and only then treated with the active compounds which had been suspended or emulsified in water. To this end, the test plants were either sown directly, and grown in the same containers, or they were first grown separately as seedlings and transplanted into the test containers a few days prior to treatment.
(§3) Depending on the species, the plants were kept at 10-25° C. and 20-35° C., respectively.
(§4) The test period extended over 1 to 3 weeks. During this time, the plants were tended and their response to the individual treatments was evaluated 20 days after treatment except mentioned otherwise.
(§5) Evaluation was carried out using a scale from 0 to 100. 100 means no emergence of the plants, or complete destruction of at least the above-ground parts, and 0 means no damage or normal course of growth.
(§6) The respective stated components A and B, and, if appropriate, C, were formulated as a 10% by weight strength emulsion concentrate and, with addition of the amount of solvent system, introduced into the spray liquor used for applying the active compound. In the examples, the solvent used was water.
(§7) In the examples below, using the method of S. R. Colby (1967) “Calculating synergistic and antagonistic responses of herbicide combinations”, Weeds 15, p. 22 ff., the value E, which is expected if the activity of the individual active compounds is only additive, was calculated. E=X+Y−(X·Y/100)

GERDI = format: in vivo, Geranium dissectum; design: key to herbicidal activity against GERDI found: rating on a scale from 0 to 100; settings: post emergence
In short: (§8)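 Post-emergence spray on 1–15 cm plants in medium loamy sand pots; actives as 10% w/w EC diluted in water. 10-25° C / 20-35° C per species. Visual score 20 d after treatment, 0 = no damage, 100 = full kill; Colby expected value E=X+Y−(X·Y/100).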

IPOHE = format: in vivo, Ipomoea hederacea; design: key to herbicidal activity against IPOHE found: rating on a scale from 0 to 100; settings: post emergence
Description: as §1, §2, §3, §4, §5, §6, §7

POLCO = format: in vivo, Polygonum convolvulus; design: key to herbicidal activity against POLCO found: rating on a scale from 0 to 100
In short: (§9)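 Herbicidal activity scored on a 0 (no damage) to 100 (plants destroyed) scale, usually 20 days after water-based spraying of 1–15 cm plants grown in loamy sand at 10-25 °C or 20-35 °C depending on species. Components were applied from 10% emulsion concentrates; Colby's E=X+Y−(X·Y/100) gives the additive expectation.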

PAPRH = format: in vivo, Papaver rhoeas; design: key: rating on a scale from 0 to 100
Description: as §1, §2, §3, §4, §5, §6, §7

MATCH = format: in vivo, Matricaria recutita; design: key to herbicidal activity against MATCH found: rating on a scale from 0 to 100
In short: as §8

ERICA = format: in vivo, Conyza canadensis; design: key to herbicidal activity against ERICA found: rating on a scale from 0 to 100; settings: post emergence
In short: as §8

ALOMY = format: in vivo, Alopecurus myosuroides; design: key to herbicidal activity against ALOMY found: rating on a scale from 0 to 100; settings: for herbicidal activity against ALOMY found: B.95 1 g/ha a.i.
In short: as §8

APESV = format: in vivo, Apera spica-venti; design: key to herbicidal activity against APESV found: rating on a scale from 0 to 100; settings: for herbicidal activity against APESV found: B.95 1 g/ha a.i.
In short: as §8

GALAP = format: in vivo, Galium aparine; design: key to herbicidal activity against GALAP found: rating on a scale from 0 to 100; settings: post emergence
In short: as §9

VIOAR = format: in vivo, Viola arvensis; settings: Viola arvensis, post-emergence, read-out: herbicidal activity against VIOAR found
In short: as §9

KCHSC = format: in vivo, Kochia scoparia; settings: Bassia scoparia, post-emergence, 480 h, read-out: herbicidal activity against KCHSC found
Description: as §1, §2, §3, §4, §5, §6, §7

STEME = format: in vivo, Stellaria media; design: key: scale 0 to 100
Description: as §1, §2, §3, §4, §5, §6, §7

ABUTH = format: in vivo, Abutilon theophrast; settings: Abutilon theophrasti, post-emergence, 480 h, read-out: herbicidal activity against ABUTH found
In short: as §8

[1] = application rate a.i.: I.1 31.25 g/ha, B.40 (imazethapyr) 7.5 g/ha, alone or as mixture (composition 1.40)
[2] = application rate a.i.: I.1 62.5 g/ha, B.40 (imazethapyr) 7.5 g/ha, alone or as mixture (composition 1.40)
[3] = I.1 15.62 g/ha, B.95 1 g/ha a.i.
[4] = I.1 31.25 g/ha, B.95 1 g/ha a.i.
[5] = I.1 31.25 g/ha, B.95 2 g/ha a.i.
[6] = I.1 62.5 g/ha, B.95 1 g/ha a.i.
[7] = I.1 62.5 g/ha, B.95 2 g/ha a.i.
[8] = single active, 50 g/ha a.i., post emergence
[9] = Matricaria chamomilla, post-emergence, 480 h, read-out: herbicidal activity against MATCH found
[10] = a.i. g/ha: I.1 62.5, B.191 225, 20 days after treatment

CCc1cnc(C2=NC(C)(C(C)C)C(=O)N2)c(C(=O)O)c1 (stereo not drawn) [B.40, imazethapyr]
herbicidal activity against ECHCG found (ECHCG; [1]): 85 | herbicidal activity against GERDI found (GERDI; [1]): 95 | herbicidal activity against GERDI found (GERDI; [2]): 90 | herbicidal activity against IPOHE found (IPOHE; [2]): 80 | herbicidal activity against POLCO found (POLCO; post emergence, application rate a.i.: I.1 31.25 g/ha, B.40 (imazethapyr) 7.5 g/ha, alone or as mixture (composition 1.40)): 80 | herbicidal activity against PAPRH found (PAPRH; [2]): 45

C#CCN1C(=O)C(F)(F)Oc2cc(F)c(-n3c(=O)n(C)c(=S)n(C)c3=O)cc21 [B.95, trifludimoxazin]
herbicidal activity against MATCH found (MATCH; post emergence, I.1 15.62 g/ha, B.95 1 g/ha a.i.): 30 | herbicidal activity against MATCH found (MATCH; post emergence, I.1 31.25 g/ha, B.95 1 g/ha a.i.): 30 | herbicidal activity against MATCH found (MATCH; post emergence, I.1 31.25 g/ha, B.95 2 g/ha a.i.): 65 | herbicidal activity against MATCH found (MATCH; post emergence, I.1 62.5 g/ha, B.95 2 g/ha a.i.): 65 | herbicidal activity against ERICA found (ERICA; [3]): 40 | herbicidal activity against ERICA found (ERICA; I.1 15.62 g/ha, B.95 2 g/ha a.i.): 45 | herbicidal activity against ERICA found (ERICA; [4]): 40 | herbicidal activity against ERICA found (ERICA; [5]): 45 | herbicidal activity against ERICA found (ERICA; [6]): 40 | herbicidal activity against ERICA found (ERICA; [7]): 45 | herbicidal activity against ALOMY found (ALOMY; post emergence, I.1 31.25 g/ha): 25 | herbicidal activity against ALOMY found (ALOMY; post emergence, I.1 62.5 g/ha): 25 | herbicidal activity against APESV found (APESV; post emergence, I.1 15.62 g/ha): 30 | herbicidal activity against APESV found (APESV; post emergence, I.1 62.5 g/ha): 30 | herbicidal activity against GALAP found (GALAP; [4]): 75 | herbicidal activity against GALAP found (GALAP; [5]): 75 | herbicidal activity against GALAP found (GALAP; [7]): 75 | herbicidal activity against ECHCG found (ECHCG; [3]): 25 | herbicidal activity against ECHCG found (ECHCG; [7]): 45 | herbicidal activity against GERDI found (GERDI; [6]): 65 | herbicidal activity against GERDI found (GERDI; [7]): 65 | herbicidal activity against PAPRH found (PAPRH; [4]): 35 | herbicidal activity against PAPRH found (PAPRH; [6]): 35

CC(C)N(C(=O)COc1nnc(C(F)(F)F)s1)c1ccc(F)cc1 [B.130, flufenacet]
pest or weed control at 50 g/ha (MATCH; Matricaria chamomilla, post-emergence, 480 h, single active, 50 g/ha a.i., post emergence, read-out: herbicidal activity against MATCH found): 0% | pest or weed control at 100 g/ha (MATCH; Matricaria chamomilla, post-emergence, 480 h, single active, 100 g/ha a.i., post emergence, read-out: herbicidal activity against MATCH found): 20% | pest or weed control at 50 g/ha (ERICA; Erigeron canadensis, post-emergence, 480 h, single active, 50 g/ha a.i., read-out: herbicidal activity against ERICA found): 0% | pest or weed control at 50 g/ha (ALOMY; Alopecurus myosuroides, post-emergence, 480 h, single active, 50 g/ha a.i., post emergence, read-out: herbicidal activity against ALOMY found): 40% | pest or weed control at 100 g/ha (ALOMY; Alopecurus myosuroides, post-emergence, 480 h, single active, 100 g/ha a.i., post emergence, read-out: herbicidal activity against ALOMY found): 65% | pest or weed control at 50 g/ha (APESV; Apera spica-venti, post-emergence, 480 h, single active, 50 g/ha a.i., post emergence, read-out: herbicidal activity against APESV found): 85% | pest or weed control at 50 g/ha (VIOAR; [8]): 80% | pest or weed control at 100 g/ha (ECHCG; Echinochloa crus-galli, post-emergence, 480 h, single active, 100 g/ha a.i., read-out: herbicidal activity against ECHCG found): 65% | pest or weed control at 50 g/ha (GERDI; Geranium dissectum, post-emergence, 480 h, single active, 50 g/ha a.i., read-out: herbicidal activity against GERDI found): 10% | pest or weed control at 100 g/ha (GERDI; Geranium dissectum, post-emergence, 480 h, single active, 100 g/ha a.i., read-out: herbicidal activity against GERDI found): 10% | pest or weed control at 50 g/ha (IPOHE; Ipomoea hederacea, post-emergence, 480 h, single active, 50 g/ha a.i., read-out: herbicidal activity against IPOHE found): 60% | pest or weed control at 50 g/ha (POLCO; Fallopia convolvulus, post-emergence, 480 h, single active, 50 g/ha a.i., post emergence, read-out: herbicidal activity against POLCO found): 10% | pest or weed control at 100 g/ha (POLCO; Fallopia convolvulus, post-emergence, 480 h, single active, 100 g/ha a.i., post emergence, read-out: herbicidal activity against POLCO found): 10% | pest or weed control at 50 g/ha (KCHSC; [8]): 0%

Cc1cnc2c(C(=O)O)c(Cl)ccc2c1 [B.169, quinmerac]
pest or weed control at 62.5 g/ha (ERICA; Erigeron canadensis, post-emergence, 480 h, B.169 62.5 g/ha a.i., read-out: herbicidal activity against ERICA found): 65% | pest or weed control at 125 g/ha (ERICA; Erigeron canadensis, post-emergence, 480 h, B.169 125 g/ha a.i., read-out: herbicidal activity against ERICA found): 75% | pest or weed control at 62.5 g/ha (ALOMY; Alopecurus myosuroides, post-emergence, 480 h, post emergence, B.169 62.5 g/ha a.i., read-out: herbicidal activity against ALOMY found): 0% | pest or weed control at 62.5 g/ha (APESV; Apera spica-venti, post-emergence, 480 h, post emergence, B.169 62.5 g/ha a.i., read-out: herbicidal activity against APESV found): 0% | pest or weed control at 62.5 g/ha (ECHCG; Echinochloa crus-galli, post-emergence, 480 h, B.169 62.5 g/ha a.i., read-out: herbicidal activity against ECHCG found): 0% | pest or weed control at 62.5 g/ha (KCHSC; post emergence, B.169 62.5 g/ha a.i.): 10% | pest or weed control at 125 g/ha (KCHSC; post emergence, B.169 125 g/ha a.i.): 25%

C/C(=N\NC(=O)Nc1cc(F)cc(F)c1)c1ncccc1C(=O)O [B.174, diflufenzopyr]
pest or weed control at 20 g/ha (MATCH; [9]): 70% | pest or weed control at 40 g/ha (MATCH; [9]): 70% | pest or weed control at 20 g/ha (ALOMY; Alopecurus myosuroides, post-emergence, 480 h, read-out: herbicidal activity against ALOMY found): 0% | pest or weed control at 20 g/ha (APESV; Apera spica-venti, post-emergence, 480 h, read-out: herbicidal activity against APESV found): 0% | herbicidal activity against STEME found (STEME; B.174 alone 40 g/ha a.i.): 50 | pest or weed control at 40 g/ha (VIOAR): 65% | pest or weed control at 20 g/ha (ABUTH): 85% | pest or weed control at 20 g/ha (POLCO; Fallopia convolvulus, post-emergence, 480 h, read-out: herbicidal activity against POLCO found): 30% | pest or weed control at 20 g/ha (KCHSC): 65%

CCCCCCCCSC(=O)Oc1cc(Cl)nnc1-c1ccccc1 [B.191, pyridate]
herbicidal activity against MATCH found (MATCH; post emergence, a.i. g/ha: I.1 62.5, B.191 225, 20 days after treatment): 20% | herbicidal activity against ERICA found (ERICA; [10]): 70% | herbicidal activity against STEME found (STEME; [10]): 0% | herbicidal activity against GALAP found (GALAP; [10]): 90%
